# In PubChem BioAssay AID1963983 (Molecular Pharmacology Branch, DTP, NCI, 2024):
# Tested on: 186277-243-T-J2-PDC multi-cell spheroid viability
# Assay: Anticancer human tumor 186277-243-T-J2-PDC patient-derived colon adenocarcinoma cell line growth inhibition [PI3K]
# Details: for IC50: curve of first compound; for viability, T/C: stronger effect = lower value
# Outline: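 Targeted small molecules plus PI3K inhibitors, half-log dose series from Cmax (default top 10 microM), were applied to heterotypic spheroids of cancer cells with HUVEC and MSCs. Viability indicated growth inhibition.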
# [1] = second compound 0.0316 µM, first compound 0.0316 µM
# [2] = second compound 0.0316 µM, first compound 0.1 µM
# [3] = second compound 0.1 µM, first compound 0.0316 µM
# [4] = second compound 0.1 µM, first compound 0.1 µM
# [5] = second compound 0.316 µM, first compound 0.0316 µM
# [6] = second compound 0.316 µM, first compound 0.1 µM
# [7] = second compound 1 µM, first compound 0.0316 µM
# [8] = second compound 1 µM, first compound 0.1 µM
# [9] = second compound 3.16 µM, first compound 0.0316 µM
# [10] = second compound 3.16 µM, first compound 0.1 µM
# [11] = second compound 10 µM, first compound 0.0316 µM
# [12] = second compound 10 µM, first compound 0.1 µM
# 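Also: spheroids exposed to compounds for seven days before viability reading.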
# 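For viability, T/C in this document: 100% = DMSO vehicle control viability.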
smiles,measurement,setting,value
CC(C)n1nc(-c2ccc3oc(N)nc3c2)c2c(N)ncnc21 + CC(Nc1ncnc2nc[nH]c12)c1cc2cccc(Cl)c2c(=O)n1-c1ccccc1,IC50,second compound 0.0316 µM,63.4 nM
same,IC50,second compound 0.1 µM,59.2 nM
same,IC50,second compound 0.316 µM,61.7 nM
same,IC50,second compound 1 µM,56.1 nM
same,IC50,second compound 3.16 µM,47.8 nM
same,IC50,second compound 10 µM,47.2 nM
same,"viability, T/C","second compound 0.0316 µM, first compound 0.000316 µM",86.4%
same,"viability, T/C","second compound 0.0316 µM, first compound 0.001 µM",96%
same,"viability, T/C","second compound 0.0316 µM, first compound 0.00316 µM",108%
same,"viability, T/C","second compound 0.0316 µM, first compound 0.01 µM",90.2%
same,"viability, T/C",[1],81.5%
same,"viability, T/C",[2],29.2%
same,"viability, T/C","second compound 0.1 µM, first compound 0.000316 µM",112%
same,"viability, T/C","second compound 0.1 µM, first compound 0.001 µM",101%
same,"viability, T/C","second compound 0.1 µM, first compound 0.00316 µM",96.7%
same,"viability, T/C","second compound 0.1 µM, first compound 0.01 µM",97.1%
same,"viability, T/C",[3],80.3%
same,"viability, T/C",[4],25.3%
same,"viability, T/C","second compound 0.316 µM, first compound 0.000316 µM",105%
same,"viability, T/C","second compound 0.316 µM, first compound 0.001 µM",103%
same,"viability, T/C","second compound 0.316 µM, first compound 0.00316 µM",89.1%
same,"viability, T/C","second compound 0.316 µM, first compound 0.01 µM",103%
same,"viability, T/C",[5],79.6%
same,"viability, T/C",[6],28.6%
same,"viability, T/C","second compound 1 µM, first compound 0.000316 µM",96.7%
same,"viability, T/C","second compound 1 µM, first compound 0.001 µM",108%
same,"viability, T/C","second compound 1 µM, first compound 0.00316 µM",102%
same,"viability, T/C","second compound 1 µM, first compound 0.01 µM",96.3%
same,"viability, T/C",[7],72.5%
same,"viability, T/C",[8],27.4%
same,"viability, T/C","second compound 3.16 µM, first compound 0.000316 µM",95%
same,"viability, T/C","second compound 3.16 µM, first compound 0.001 µM",90.8%
same,"viability, T/C","second compound 3.16 µM, first compound 0.00316 µM",95.4%
same,"viability, T/C","second compound 3.16 µM, first compound 0.01 µM",92.2%
same,"viability, T/C",[9],64.9%
same,"viability, T/C",[10],23.5%
same,"viability, T/C","second compound 10 µM, first compound 0.000316 µM",89.7%
same,"viability, T/C","second compound 10 µM, first compound 0.001 µM",94.5%
same,"viability, T/C","second compound 10 µM, first compound 0.00316 µM",78%
same,"viability, T/C","second compound 10 µM, first compound 0.01 µM",80.5%
same,"viability, T/C",[11],69.7%
same,"viability, T/C",[12],17.6%
CC1(C)CCC(CN2CCN(c3ccc(C(=O)NS(=O)(=O)c4ccc(NCC5CCOCC5)c([N+](=O)[O-])c4)c(Oc4cnc5[nH]ccc5c4)c3)CC2)=C(c2ccc(Cl)cc2)C1 + CC(Nc1ncnc2nc[nH]c12)c1cc2cccc(Cl)c2c(=O)n1-c1ccccc1,IC50,second compound 0.0316 µM,4860 nM
same,IC50,second compound 0.1 µM,4450 nM
same,IC50,second compound 0.316 µM,5630 nM
same,IC50,second compound 1 µM,4840 nM
same,IC50,second compound 3.16 µM,5170 nM
same,IC50,second compound 10 µM,4670 nM
same,"viability, T/C",[1],96.6%
same,"viability, T/C",[2],96.2%
same,"viability, T/C","second compound 0.0316 µM, first compound 0.316 µM",95%
same,"viability, T/C","second compound 0.0316 µM, first compound 1 µM",105%
same,"viability, T/C","second compound 0.0316 µM, first compound 3.16 µM",77.3%
same,"viability, T/C","second compound 0.0316 µM, first compound 10 µM",4.52%
same,"viability, T/C",[3],99.5%
same,"viability, T/C",[4],116%
same,"viability, T/C","second compound 0.1 µM, first compound 0.316 µM",96.7%
same,"viability, T/C","second compound 0.1 µM, first compound 1 µM",92.2%
same,"viability, T/C","second compound 0.1 µM, first compound 3.16 µM",70.5%
same,"viability, T/C","second compound 0.1 µM, first compound 10 µM",4.02%
same,"viability, T/C",[5],97%
same,"viability, T/C",[6],108%
same,"viability, T/C","second compound 0.316 µM, first compound 0.316 µM",91.8%
same,"viability, T/C","second compound 0.316 µM, first compound 1 µM",98.6%
same,"viability, T/C","second compound 0.316 µM, first compound 3.16 µM",92.1%
same,"viability, T/C","second compound 0.316 µM, first compound 10 µM",8%
same,"viability, T/C",[7],105%
same,"viability, T/C",[8],116%
same,"viability, T/C","second compound 1 µM, first compound 0.316 µM",102%
same,"viability, T/C","second compound 1 µM, first compound 1 µM",112%
same,"viability, T/C","second compound 1 µM, first compound 3.16 µM",77%
same,"viability, T/C","second compound 1 µM, first compound 10 µM",4.04%
same,"viability, T/C",[9],112%
same,"viability, T/C",[10],115%
same,"viability, T/C","second compound 3.16 µM, first compound 0.316 µM",106%
same,"viability, T/C","second compound 3.16 µM, first compound 1 µM",103%
same,"viability, T/C","second compound 3.16 µM, first compound 3.16 µM",85.9%
same,"viability, T/C","second compound 3.16 µM, first compound 10 µM",3.14%
same,"viability, T/C",[11],97%
same,"viability, T/C",[12],96.1%
same,"viability, T/C","second compound 10 µM, first compound 0.316 µM",97.2%
same,"viability, T/C","second compound 10 µM, first compound 1 µM",95.5%
same,"viability, T/C","second compound 10 µM, first compound 3.16 µM",74.7%
same,"viability, T/C","second compound 10 µM, first compound 10 µM",2.09%
